Values quoted from earlier work in patent US20150237898A1, “STEVIOSIDE BLENDS” (Cargill, Incorporated, priority 2012, published 2015).
“Also recorded” adds a separate entry of the source.

Conditions: literature

SMILES | sweetening power / sweetness compared with other glycosides | bitterness compared with other glycosides
C=C1C[C@@]23CC[C@H]4[C@@](C)(CCC[C@@]4(C)C(=O)O[C@@H]4O[C@H](CO)[C@@H](O)[C@H](O)[C@H]4O)[C@@H]2CC[C@]1(O[C@@H]1O[C@H](CO)[C@@H](O)[C@H](O[C@@H]2O[C@H](CO)[C@@H](O)[C@H](O)[C@H]2O)[C@H]1O[C@@H]1O[C@H](CO)[C@@H](O)[C@H](O)[C@H]1O)C3 [Reb A, rebaudioside A] | highest sweetening power of all the glycosides; also recorded: more potent and more pleasant tasting than stevioside | –
C=C1C[C@@]23CC[C@H]4[C@@](C)(CCC[C@@]4(C)C(=O)O[C@@H]4O[C@H](CO)[C@@H](O)[C@H](O)[C@H]4O)[C@@H]2CC[C@]1(O[C@@H]1O[C@H](CO)[C@@H](O)[C@H](O)[C@H]1O[C@@H]1O[C@H](CO)[C@@H](O)[C@H](O)[C@H]1O)C3 [stevioside] | much less sweet | much more bitter than Reb A and other glycosides
